Measured values published in publication PMC10362319 (Toxicon: X, 2023).

Assays:
[1] = HLM incubation, decreasing thereafter
[2] = BTX-2 5 μM, 60 min incubations with HLM and fish microsomes
[3] = Chemical GSH conjugation of BTX-2 without microsomes; format: physicochemical
[4] = GSH conjugation of BTX-2 with deactivated RSN2 microsomes and 100 μM GSH; format: in vitro ADME, Lutjanus campechanus
[5] = GSH conjugation of BTX-2 with active RSN2 microsomes and 100 μM GSH; format: in vitro ADME, Lutjanus campechanus
[6] = RSN1 control without NADPH regeneration system

41,43-dihydro-BTX-2 [Compound 2b]
time at which the metabolite reached a maximum [1]: about 15 min

41,43-dihydro-BTX-B5 [Compound 5d]
occurrence of the metabolite across microsomal incubations [2]: only produced by HLM

41,43-dihydro-BTX-B5 [Compound 5e]
occurrence of the metabolite across microsomal incubations [2]: only produced by HLM

A-ring hydrolyzed BTX-3 [Compound 6a]
occurrence of the metabolite across microsomal incubations [2]: produced in all fish microsomes and in HLM

BTX-2-GSH [Compound 12]
formation rate of BTX-2-GSH [3]: 0.46 min⁻¹ | formation rate of BTX-2-GSH [4]: 0.46 min⁻¹ | formation rate of BTX-2-GSH [5]: 0.18 min⁻¹

BTX-9 [Compound 3]
metabolite formation where the NADPH regeneration system was excluded [6]: not formed

Hydroxyl BTX-2 (rings A-E) [Compound 4b]
occurrence of the metabolite across microsomal incubations [2]: occurred mainly in the two Lutjanid species
